# Assay results reported in PubChem BioAssay AID248 (DTP/NCI, 2004).
# Where “and” joins values, the source holds several entries; their conditions need not be identical. Equal entries are not always repeated. Inconclusive results and toxic doses are left out.
# Test system: L1210 leukemia ip in BDF1 mice, survival T/C
# Test: NCI In Vivo Anticancer Drug Screen. Data for tumor model L1210 Leukemia (intraperitoneal) in B6D2F1 (BDF1) mice
# Details: endpoint: mean survival time, higher = longer survival
# Summary of the method: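 Transplanted-tumor mice were given test agent; controls received vehicle only. Survival readings from the two groups were divided (treated over control).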
# [1] = dose: 100.0 mg/kg/injection, schedule: Q04DX003 (ip), vehicle: other
# [2] = dose: 200.0 mg/kg/injection, schedule: Q04DX003 (ip), vehicle: other
# [3] = dose: 400.0 mg/kg/injection, schedule: Q04DX003 (ip), vehicle: other
# [4] = dose: 100.0 mg/kg/injection, schedule: Q01DX009 (ip), vehicle: Klucel (hydroxypropylcellulose) (HPC)
# [5] = dose: 100.0 mg/kg/injection, schedule: Q04DX003 (ip), vehicle: Klucel (hydroxypropylcellulose) (HPC)
# [6] = dose: 200.0 mg/kg/injection, schedule: Q01DX009 (ip), vehicle: Klucel (hydroxypropylcellulose) (HPC)
# [7] = dose: 200.0 mg/kg/injection, schedule: Q04DX003 (ip), vehicle: Klucel (hydroxypropylcellulose) (HPC)
# [8] = dose: 400.0 mg/kg/injection, schedule: Q01DX009 (ip), vehicle: Klucel (hydroxypropylcellulose) (HPC)
# [9] = dose: 400.0 mg/kg/injection, schedule: Q04DX003 (ip), vehicle: Klucel (hydroxypropylcellulose) (HPC)
# [10] = dose: 100.0 mg/kg/injection, schedule: Q04DX003 (ip), vehicle: saline with Tween-80
# [11] = dose: 200.0 mg/kg/injection, schedule: Q04DX003 (ip), vehicle: saline with Tween-80
# [12] = dose: 50.0 mg/kg/injection, schedule: Q01DX001 (ip), vehicle: carboxymethylcellulose (CMC)
# [13] = dose: 100.0 mg/kg/injection, schedule: Q04DX003 (ip), vehicle: saline
# [14] = dose: 200.0 mg/kg/injection, schedule: Q04DX003 (ip), vehicle: saline
# [15] = dose: 400.0 mg/kg/injection, schedule: Q04DX003 (ip), vehicle: saline
smiles,measurement,setting,value
CCCCCCOC(=O)C(N)Cc1ccc(OC)c(N(CCCl)CCCl)c1 (stereo not drawn),T/C,"dose: 12.5 mg/kg/injection, schedule: Q01DX001 (ip), vehicle: saline",93 % of control
same,T/C,"dose: 15.0 mg/kg/injection, schedule: Q01DX001 (ip), vehicle: saline",94 % of control
CCCCCCCCCCCCCCCCCCCCCC1CCCC1,T/C,[1],96 % of control
same,T/C,[2],94 % of control
same,T/C,[3],96 % of control
CC(C)(C)C(=O)CC(=O)C(C)(C)C.CC(C)(C)C(=O)CC(=O)C(C)(C)C.CC(C)(C)C(=O)CC(=O)C(C)(C)C.CC(C)(C)C(=O)CC(=O)C(C)(C)C.[Ce],T/C,[4],100 % of control
same,T/C,[5],103 % of control
same,T/C,[6],96 % of control
same,T/C,[7],94 % of control
same,T/C,[8],107 % of control
same,T/C,[9],106 % of control
O=C(/C=C/c1ccccc1)C1CC1,T/C,[1],101 % of control
same,T/C,[2],98 % of control
same,T/C,[3],98 % of control
CC1(C)C2CC3C=CCCC3(C2)C1Br (stereo not drawn),T/C,"dose: 100.0 mg/kg/injection, schedule: Q01DX001 (ip), vehicle: Klucel (hydroxypropylcellulose) (HPC)",103 % of control
same,T/C,"dose: 200.0 mg/kg/injection, schedule: Q01DX001 (ip), vehicle: Klucel (hydroxypropylcellulose) (HPC)",92 % of control
same,T/C,"dose: 400.0 mg/kg/injection, schedule: Q01DX001 (ip), vehicle: Klucel (hydroxypropylcellulose) (HPC)",100 % of control
CC(C)N1CNC(=O)C12CCN(CC1COc3ccccc3O1)CC2 (stereo not drawn),T/C,[10],104 % of control
same,T/C,[11],106 % of control
O=C(O)/C=C/c1ccccn1,T/C,"dose: 20.0 mg/kg/injection, schedule: Q04DX003 (ip), vehicle: Klucel (hydroxypropylcellulose) (HPC)",102 % of control
same,T/C,"dose: 40.0 mg/kg/injection, schedule: Q04DX003 (ip), vehicle: Klucel (hydroxypropylcellulose) (HPC)",100 % of control
same,T/C,"dose: 80.0 mg/kg/injection, schedule: Q04DX003 (ip), vehicle: Klucel (hydroxypropylcellulose) (HPC)",94 % of control
same,T/C,[5],93 % of control
same,T/C,[7],100 % of control
Nc1cc(Br)cc2c1nc(NCCO)c1ccccc12,T/C,"dose: 50.0 mg/kg/injection, schedule: Q04DX003 (ip), vehicle: Klucel (hydroxypropylcellulose) (HPC)",118 % of control
same,T/C,[5],102 % of control
same,T/C,[7],97 % of control
same,T/C,[9],105 % of control
CN1CNC(=O)NC1,T/C,[4],113 % of control
same,T/C,[5],105 % of control
same,T/C,[6],105 % of control
same,T/C,[7],105 % of control
same,T/C,[8],103 % of control
same,T/C,[9],111 % of control
COC(=O)C1CC(=O)C(C(=O)OC)CC1=O (stereo not drawn),T/C,[4],89 % of control
same,T/C,[6],92 % of control
same,T/C,[8],89 % of control
CC(C)(/C=N/N=C(N)N)CCC#N,T/C,"dose: 60.0 mg/kg/injection, schedule: Q01DX Z (oral), vehicle: saline",98 % of control
same,T/C,"dose: 120.0 mg/kg/injection, schedule: Q01DX Z (oral), vehicle: saline",109 % of control
same,T/C,"dose: 240.0 mg/kg/injection, schedule: Q01DX Z (oral), vehicle: saline",103 % of control
same,T/C,"dose: 480.0 mg/kg/injection, schedule: Q01DX Z (oral), vehicle: saline",94 % of control and 116 % of control
CC/C=C(CC)/C(CC)=C(/CC)CO,T/C,"dose: 100.0 mg/kg/injection, schedule: Q01DX001 (ip), vehicle: saline with Tween-80",103 % of control
same,T/C,"dose: 200.0 mg/kg/injection, schedule: Q01DX001 (ip), vehicle: saline with Tween-80",95 % of control
same,T/C,"dose: 400.0 mg/kg/injection, schedule: Q01DX001 (ip), vehicle: saline with Tween-80",92 % of control
CCOC(=O)/C(C)=N\Nc1ccc([N+](=O)[O-])cc1,T/C,[12],92 % of control
same,T/C,"dose: 100.0 mg/kg/injection, schedule: Q01DX001 (ip), vehicle: carboxymethylcellulose (CMC)",90 % of control
same,T/C,"dose: 200.0 mg/kg/injection, schedule: Q01DX001 (ip), vehicle: carboxymethylcellulose (CMC)",92 % of control
same,T/C,"dose: 400.0 mg/kg/injection, schedule: Q01DX001 (ip), vehicle: carboxymethylcellulose (CMC)",103 % of control
NC(N)=Nc1ccc(NC(=O)c2ccc(C(=O)Nc3ccc(N=C(N)N)cc3)cc2)cc1,T/C,"dose: 1.8 mg/kg/injection, schedule: Q01DX Z (ip), vehicle: carboxymethylcellulose (CMC)",122 % of control
same,T/C,"dose: 3.7 mg/kg/injection, schedule: Q01DX Z (ip), vehicle: carboxymethylcellulose (CMC)",104 % of control
same,T/C,"dose: 7.5 mg/kg/injection, schedule: Q01DX Z (ip), vehicle: carboxymethylcellulose (CMC)",88 % of control
O=C(CCNC(=O)OCc1ccccc1)NCC(=O)OCc1ccccc1,T/C,[10],103 % of control
same,T/C,[11],97 % of control
same,T/C,"dose: 400.0 mg/kg/injection, schedule: Q04DX003 (ip), vehicle: saline with Tween-80",92 % of control
CS(=O)(=O)/C=C\c1ccccc1,T/C,[13],101 % of control
same,T/C,[14],95 % of control
same,T/C,[15],103 % of control
O=c1/c(=C\c2ccccc2Cl)sc2n1CCN=2,T/C,"dose: 100.0 mg/kg/injection, schedule: Q01DX001 (ip), vehicle: saline",100 % of control
same,T/C,"dose: 200.0 mg/kg/injection, schedule: Q01DX001 (ip), vehicle: saline",105 % of control
same,T/C,"dose: 400.0 mg/kg/injection, schedule: Q01DX001 (ip), vehicle: saline",105 % of control
O=C1C(Cl)=C(N/N=c2/[nH][nH]/c(=N/NC3=C(Cl)C(=O)c4ccccc4C3=O)c3ccccc23)C(=O)c2ccccc21,T/C,"dose: 25.0 mg/kg/injection, schedule: Q01DX001 (ip), vehicle: carboxymethylcellulose (CMC)",104 % of control
same,T/C,[12],101 % of control
CC1(C)C(=O)CC[C@@]2(C)C1=CC[C@@H]1[C@@H]2CC[C@@]2(C)[C@H]1CC[C@]2(C)O,T/C,"dose: 50.0 mg/kg/injection, schedule: Q01DX Z (sc), vehicle: steriod suspending solution",91 % of control
same,T/C,"dose: 250.0 mg/kg/injection, schedule: Q01DX Z (sc), vehicle: steriod suspending solution",96 % of control
same,T/C,"dose: 500.0 mg/kg/injection, schedule: Q01DX Z (sc), vehicle: steriod suspending solution",101 % of control
CC(=O)NCCOc1ccc(N)cc1Cl,T/C,[13],94 % of control
same,T/C,[14],92 % of control
same,T/C,[15],91 % of control
COc1ccc(OC)c(C2N(Cc3ccc(N(C)C)cc3)CCCN2Cc2ccc(N(C)C)cc2)c1,T/C,"dose: 50.0 mg/kg/injection, schedule: Q01DX009 (ip), vehicle: saline with Tween-80",93 % of control
same,T/C,"dose: 100.0 mg/kg/injection, schedule: Q01DX009 (ip), vehicle: saline with Tween-80",93 % of control
same,T/C,"dose: 200.0 mg/kg/injection, schedule: Q01DX009 (ip), vehicle: saline with Tween-80",90 % of control
CNC(=N)c1ccc(NC(=N)c2ccc(NC(=N)c3ccc(NC(=N)c4ccc(C(=N)NC)cc4)cc3)cc2)cc1,T/C,"dose: 4.4 mg/kg/injection, schedule: Q01DX015 (sc), vehicle: water",102 % of control
same,T/C,"dose: 5.5 mg/kg/injection, schedule: Q01DX Z (ip), vehicle: water",116 % of control
same,T/C,"dose: 6.7 mg/kg/injection, schedule: Q01DX015 (sc), vehicle: water",107 % of control
same,T/C,"dose: 7.5 mg/kg/injection, schedule: Q01DX001 (ip), vehicle: water",104 % of control
same,T/C,"dose: 10.0 mg/kg/injection, schedule: Q01DX015 (sc), vehicle: water",112 % of control
same,T/C,"dose: 15.0 mg/kg/injection, schedule: Q01DX001 (ip), vehicle: water",106 % of control
same,T/C,"dose: 16.0 mg/kg/injection, schedule: Q01DX015 (ip), vehicle: water",216 % of control
same,T/C,"dose: 22.0 mg/kg/injection, schedule: Q01DX Z (ip), vehicle: water",191 % of control
same,T/C,"dose: 22.5 mg/kg/injection, schedule: Q01DX015 (sc), vehicle: water",184 % of control
same,T/C,"dose: 30.0 mg/kg/injection, schedule: Q01DX001 (ip), vehicle: water",106 % of control
same,T/C,"dose: 44.0 mg/kg/injection, schedule: Q01DX Z (ip), vehicle: water",100 % of control
CCCCCCCCCCCCSC(SCCCCCCCCCCCC)c1ccc(OCC(=O)O)cc1,T/C,"dose: 25.0 mg/kg/injection, schedule: Q04DX003 (ip), vehicle: saline",105 % of control
same,T/C,"dose: 50.0 mg/kg/injection, schedule: Q04DX003 (ip), vehicle: saline",96 % of control
same,T/C,[4],97 % of control
same,T/C,[13],100 % of control
same,T/C,[6],94 % of control
same,T/C,[14],102 % of control
same,T/C,[8],97 % of control
same,T/C,[15],96 % of control
O=c1cc(CS)[nH]c(=O)[nH]1,T/C,[13],98 % of control
same,T/C,[14],101 % of control
same,T/C,[15],98 % of control
